# Key:
# Format in all cases: cell-based
# [1] = test system: collagen type I in primary human dermal fibroblasts (HDFn); experiment: Type I collagen synthesis on human dermal fibroblasts by ELISA; details: 0.5 µg/ml, HDFn; for % Collagen induction: 48 hours, versus non-treated cells, mean of 5 assays
# Source text: In vitro study of type I collagen synthesis on human dermal fibroblasts by Enzyme-Linked Immunosorbent Assay.
# Collagen type I is the principal collagen of skin. This molecule, which is mainly produced by fibroblasts, is responsible for the strength and resiliency of this tissue. For this reason, in vitro quantification of collagen induction by cosmetic products on human dermal fibroblasts provides information about their potential anti-aging effects on the skin. Collagen induction by the peptides of the invention is evaluated with an Enzyme-Linked Immunosorbent Assay (ELISA). The aim of this study is to investigate the ability of a product to induce collagen type I synthesis in primary human dermal fibroblasts isolated from neonatal skin (HDFn).
# HDFn (Cascade) are seeded at a density of 5×10^4 in 48-well plates. After 24-hour incubation, fresh medium with scalar dilutions of the test items at 0.5 µg/ml are added. Non-treated cells are used as basal control. The cells are treated for 48 hours. Then, the medium of the wells is collected and transferred into a 96-well plate. A standard calibration curve prepared with calf skin type I collagen (Sigma) is transferred into the plate as well. The plate is left overnight in order to coat type I collagen into its surface. After that, collagen I is detected with an anti-collagen type I antibody (Sigma). The primary antibody is then recognized by a secondary antibody IgG-HRP (molecular probes). 3,3,5,5-tetramethylbenzidine liquid substrate (TMB, Sigma) is added to measure the amount of secondary antibody attached. The color produced by this reaction is measured in a microtiter plate reader (Clariostar™, BMG) and type I collagen concentration is determined using a linear regression of the standard curve.
# [2] = test system: human subcutaneous pre-adipocytes; experiment: Lipid accumulation in coculture of young and old human subcutaneous pre-adipocytes (Adipored staining); details: 0.01 mg/ml; for %LA (percentage of lipid accumulation): 12 days, coculture of donor cells, respect to coculture control = 100
# Source text: In vitro effect of PEP-22 and PEP-23 in lipid accumulation in human subcutaneous pre-adipocytes.
# Measurement of lipid accumulation in a coculture of young and old adipose cells indirectly evaluates the inhibition of SASP. A pool of old adipose cells has a higher number of senescent cells. When cocultured with young cells, lipid accumulation observed is below the theoretically expected levels due to a senescence induction effect of SASP from old to young adipocytes.
# Induction of lipid accumulation by the peptides of the invention is evaluated by lipid fluorescent staining with Adipored® Assay Reagent. The aim of this study is to investigate the capacity of peptide candidates to induce lipid accumulation in human subcutaneous adipocytes, and therefore prevent adipocytes senescence.
# Human subcutaneous pre-adipocytes (donors, Cell applications) cells are cocultured in 96-well plates at a density of 4×10^3 cells/well each age in Human Preadipocyte Growth Medium (Sigma). Monoculture of each age are seeded at a density of 8×10^3 cells/well as age lipid accumulation controls. After 24 hours incubation, differentiation of pre-adipocytes into adipocytes is induced by changing medium to fresh Human Preadipocyte Differentiation Medium (Promocell). At the same time, cocultured cells are treated with 0.01 mg/ml of peptides of the invention. Non-treated cocultured cells are used as basal control and monocultured young and old cells as age lipid accumulation controls. After 12 days of treatment and differentiation, cells are stained with Adipored® Assay Reagent (Lonza) following the manufacturer’s instructions. In brief, the plate is washed with Phosphate Buffer Saline (Sigma) and then Adipored® reagent and Hoechst 33342 (Life technologies) are added and incubated for 15 minutes at 37° C. Finally, fluorescence intensity and nuclei number are measured by Operetta (Perkin Elmer). Fluorescence is normalized by cell nuclei and results are represented respect to cocultured basal control. Abbreviations: % LA = Percentage of lipid accumulation; CC = Coculture control; YC = young control; OC = old control.
# [3] = test system: Musclebind like protein 1 (MBNL1) in human skeletal muscle cells (hSkMc); experiment: Quantification of Musclebind like protein 1 in human skeletal muscle cells by TR-FRET; details: 0.5 mg/ml, hSkMc; for % MBNL1 vs basal level: 48 hours, normalized to total protein
# Procedure: In vitro quantification of Musclebind like protein 1 in human skeletal muscle cells by Time resolved fluorescence resonance energy transfer.
# MBNL1 induction by the peptides of the invention is evaluated by a Time resolved fluorescence resonance energy transfer (TR-FRET) assay. The aim of this study is to investigate the capacity of peptide candidates to increase MBNL-1 in human skeletal muscle cells (hSkMc).
# hSkMc (Innoprot) are seeded in 12-well plates at a density of 1.5×10^4 cells/well in Skeletal Muscle Cell Growth Medium (Promocell). After 72 hours incubation, medium is removed and replaced with Skeletal Muscle Cell Differentiation Medium (Promocell). 48 hours after beginning cell differentiation, fresh differentiation medium with 0.5 mg/ml of test items is added. Treatment is continued for 48 hours and non-treated cells are used as basal control. After 48 hours of treatment, cell medium is removed and cell lysis buffer is added to wells. Immediately, plates are kept at -80° C. in order to improve protein extraction during the defrosting process. After 72 hours, cells are lysed by shaking the plates in an orbital rotor at room temperature for 45 minutes. Next, cell lysates are collected and assayed to quantify the level of MBNL-1 protein and total protein concentration.
# MBNL-1 protein levels measurement is performed with Human MBNL1 Assay Kit (Cisbio) according to the manufacturer’s protocol. Briefly, the kit is used to perform a TR-FRET for MBNL1 quantification. The protein is detected with the antibodies provided in the kit and quantified by a fluorescence measurement. The quantification is carried out by using a microplate reader (ClarioStar™™™, BMG) set to 665 nm and 620 nm.
# Total protein concentration of cell lysate is determined by using Pierce BCA Protein Assay Kit (Thermo Scientific) according to manufacturer’s protocol. In brief, after adding Working Reagent to the samples and the standards, the samples are incubated. Afterwards, color change is measured with an absorbance microplate reader (Clariostar™, BMG) at 562 nm. The total protein amount is used to normalize the level of MBNL1 protein concentration obtained by the TR-FRET test in the samples.
Substance,% Collagen induction [1],Lipid accumulation in adipocytes compared to coculture basal control (in words) [2],%LA (percentage of lipid accumulation) [2],% MBNL1 vs basal level [3],MBNL1 levels compared to the basal control and to Argireline (in words) [3],Efficacy in increasing collagen type I compared with Argireline (in words) [1]
Ac-L-Arg-L-Arg-D-Gln-L-Met-L-Glu-L-Glu-NH2 [PEP-22],106.0%,increase lipid accumulation,133.9%,141.4%,increase MBNL1 levels,–
Ac-L-Arg-L-Arg-L-Gln-D-Met-L-Glu-L-Glu-NH2 [PEP-23],114.6%,increase lipid accumulation,159.9%,142.3%,increase MBNL1 levels,even higher
